Results from ChEMBL document CHEMBL1201862, “PubChem BioAssay data set” (2004).
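Dose response: 5 concentrations. Exposure: 48 h. Format: 96-well plates. Endpoint: linear interpolation; highest concentration if not reached. Abbreviation: GI50, concentration required for 50% inhibition of growth.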 The source made the active and inactive calls. Rule as the data show it: active = GI50 up to about 1.1 µM and inactive = higher.

Tests used:
Experiment in all cases: NCI-60 cell line screen, 48 h
BT-549 = system: BT-549
SK-OV-3 = system: SK-OV-3
SNB-19 = system: SNB-19
K562 = system: K562
Hs-578T = system: Hs-578T
CAKI-1 = system: CAKI-1
EKVX = system: EKVX
MDA-MB-435 = system: MDA-MB-435
UACC-62 = system: UACC-62
HCT-15 = system: HCT-15
RPMI-8226 = system: RPMI-8226
HOP-92 = system: HOP-92
OVCAR-8 = system: OVCAR-8
NCI/ADR-RES = system: NCI/ADR-RES
SF-539 = system: SF-539
SF-295 = system: SF-295
NCI-H23 = system: NCI-H23
TK-10 = system: TK-10
SR = system: SR
A549 = system: A549

For `Cc1ccc2nc3sc(=O)sc3nc2c1` [CHINOMETHIONAT], the GI50 (BT-549) was 15.3 µM (inactive), the GI50 (SK-OV-3) was 19.6 µM (inactive) and the GI50 (SNB-19) was 18.2 µM (inactive). The GI50 (K562) was 26.2 µM (inactive), the GI50 (Hs-578T) was 25 µM (inactive) and the GI50 (CAKI-1) was 16.4 µM (inactive). The GI50 (EKVX) was 14.2 µM (inactive), the GI50 (MDA-MB-435) was 16.1 µM (inactive) and the GI50 (UACC-62) was 17.9 µM (inactive). The GI50 (HCT-15) was 15.3 µM, the GI50 (RPMI-8226) was 19.5 µM (inactive) and the GI50 (HOP-92) was 15.5 µM (inactive). The GI50 (OVCAR-8) was 15.3 µM (inactive), the GI50 (NCI/ADR-RES) was 14.8 µM (inactive) and the GI50 (SF-539) was 18.7 µM (inactive). For the same molecule, the GI50 (SF-295) was 16.6 µM (inactive), the GI50 (NCI-H23) was 19.4 µM (inactive) and the GI50 (TK-10) was 16.4 µM (inactive). The GI50 (SR) was 21.1 µM (inactive) and the GI50 (A549) was 16.1 µM (inactive).
